{"source": "patent US5126258A", "about": "(priority 1988, dated 1992)", "key": {"[1]": {"system": "22F5", "experiment": "Hydrolysis of reactant ligands by receptor 22F5", "format": "biochemical, mouse", "set-up": "key to hydrolysis by 22F5, symbol: --: No hydrolysis observed", "conditions": "pH 8.0; 19: 2/5 uM, 21: 5/10 uM receptor/ligand", "procedure": "(§1) ^1 Preliminary initial hydrolyses shown as the percentage of admixed\n(§2) reactant ligand consumed for catalyzed and spontaneous hydrolyses. \"--\" =\n(§3) No hydrolysis observed. \"NT\" = Not tried. All reactions were carried out\n(§4) at pH 8.0 in a 50 mM phosphate buffer unless otherwise noted. Hydrolytic\n(§5) percentages were determined by HPLC using a Hitachi model 655A12 liquid\n(§6) chromatograph with a C18 Vydac 201TP54 column, except as noted below.\n(§7) Mixtures of acetonitrile a nd water containing 0.1 percent trichloroaceti\n(§8) acid [28:72-50:50 (v/v)] were used as elutant. Hydrolyses of Compounds 5\n(§9) and 20 were assayed using fluorescence data.\n(§10) ^2 Concentrations of receptor molecules (Rec.) and reactant ligands\n(§11) (Lig.) in micromolar units, presuming a molecular weight of 150,000\n(§12) daltons for each receptor molecule.\n(§13) ^3 Reactant ligand (Lig.) used as substrate.\n(§14) ^4 Time in hours that the reaction was permitted to take place.\n(§15) ^5 Spontaneous hydrolytic percentages for the time period indicated.\n(§16) ^6 Reaction carried out at pH 7.2 in a 50 mM phosphate buffer."}, "[2]": {"system": "21G2", "experiment": "Hydrolysis of reactant ligands by receptor 21G2", "format": "biochemical, mouse", "set-up": "key to hydrolysis by 21G2, symbol: --: No hydrolysis observed", "conditions": "pH 8.0; 19: 2/5 uM, 21: 5/10 uM receptor/ligand", "procedure": "as §1, §2, §3, §4, §5, §6, §7, §8, §9, §10, §11, §12, §13, §14, §15, §16"}, "[3]": {"system": "eight monoclonal receptors 21G2, 7E5, 37G2, 13E10, 12C9, 44A2, 17G8 and 22F5", "experiment": "Catalyzed hydrolysis of reactant ligands by the eight QPN1 monoclonal receptors, summary", "format": "biochemical, mouse", "conditions": "pH 8.0", "procedure": "Mice were hyperimmunized with the Compound 13-KLH conjugate over a three to four week time period. Sera were assayed in an ELISA using a Compound 13-BSA conjugate bound to microtiter plate wells as the solid-phase antigen. Cloned hybridomas were also screened using that ELISA assay.\nEach of those catalyses could be inhibited by an appropriate analog-ligand. Thus, a relatively high percentage of induced monoclonal receptors was capable of catalyzing an esterolytic reaction. The reason for this relatively high percentage of useful receptors being induced is unknown, but could be due to the presence of phosphonamidate group nitrogen atom, as compared to a phosphonate oxygen atom, or to the quinoline nucleus of the analog-ligand. Those eight catalytic monoclonal receptors and the hybridomas that secrete them are identified by the laboratory designations \"QPN1 7E5\", \"QPN1 12C9\", \"QPN1 13E10\", \"QPN1 17G8\", \"QPN1 21G2\", \"QPN1 22F5\", \"QPN1 37G2\" and QPN1 44A2. The prefix \"QPNI\" is sometimes omitted herein when discussing these hybridomas and receptors.\nAmide cleavage for Compounds 14 and 15 was assayed by analyzing for the production of free aminoquinaldine or aminonaphthalene by measuring the increase in the azo dye that results from derivatizing the free aminoquinaldine or aminonapthalene with a diazotization reagent.\nCatalysis reactions were conducted by preparing a reaction admixture of 100 microliters (ul) total volume containing 5 micromolar (uM) monoclonal antibody, 50-75 uM amide reactant ligand substrate and a buffer described hereinafter. The buffer included in the above admixture varied depending upon the pH utilized as follows: pH 5, 10 […] sodium acetate, 10 mM sodium chloride; pH 7.2, 10 mM sodium phosphate, 0.15 molar (M) sodium chloride; pH 8.0; 50 mM sodium phosphate. The amide-containing substrates screened in this assay were added to the above admixture in 1 ul of a 100-fold concentrated stock solution of dimethyl formamide (DMF). Monoclonal antibody was added to the above admixture from a concentrated stock solution. The resulting admixture was placed into the well of a 96 well flat bottom microtiter plate (Costar, Cambridge, Mass.) and maintained in a moist vapor environment chamber at 23 degrees C. The production of aminoquinaldine or aminonaphthalene was then assayed as described below after 2,3,5, or 6 days.\nThe aminoquinaldine or aminonapthalene product produced by the catalyzed reaction was measured by first admixing 20 ul of 5M HCl, 80 ul acetone and 10 ul 0.5% (w/v) sodium nitrite to the reaction admixture to form a second admixture and maintaining that second admixture for 3 minutes at room temperature. Thereafter, 10 ul 2.5% (w/v) ammonium sulfamate was added to form a third admixture that was maintained for 2 minutes at room temperature. A still further 10 ul of 0.5% (w/v) N-(1-napthyl)ethylenediamine dihydrochloride was added to form a fourth admixture that was then maintained for 15 minutes at room temperature. Thereafter the resulting azo dye present in the fourth admixture was measured by absorbance spectroscopy at 540 nanometers (nm) for aminoquinaldine using a Model EL 309 Automated Microplate Reader (Bio-Tek Instruments, Winooski, Vt.)."}, "[4]": {"system": "17G8", "experiment": "Hydrolysis of reactant ligands by receptor 17G8", "format": "biochemical, mouse", "set-up": "key to hydrolysis by 17G8, symbol: --: No hydrolysis observed", "conditions": "pH 8.0; 19: 2/5 uM, 21: 5/10 uM receptor/ligand", "procedure": "as §1, §2, §3, §4, §5, §6, §7, §8, §9, §10, §11, §12, §13, §14, §15, §16"}, "[5]": {"system": "7E5", "experiment": "Hydrolysis of reactant ligands by receptor 7E5", "format": "biochemical, mouse", "set-up": "key to hydrolysis by 7E5, symbol: --: No hydrolysis observed", "conditions": "pH 8.0; 19: 2/5 uM, 21: 5/10 uM receptor/ligand", "procedure": "as §1, §2, §3, §4, §5, §6, §7, §8, §9, §10, §11, §12, §13, §14, §15, §16"}, "[6]": {"system": "37G2", "experiment": "Hydrolysis of reactant ligands by receptor 37G2", "format": "biochemical, mouse", "set-up": "key to hydrolysis by 37G2, symbol: --: No hydrolysis observed", "conditions": "pH 8.0; 19: 2/5 uM, 21: 5/10 uM receptor/ligand", "procedure": "as §1, §2, §3, §4, §5, §6, §7, §8, §9, §10, §11, §12, §13, §14, §15, §16"}, "[7]": {"experiment": "Spontaneous (uncatalyzed, background) hydrolysis", "format": "physicochemical", "set-up": "key to Spon. (spontaneous hydrolysis), symbol: --: No hydrolysis observed", "conditions": "pH 8.0", "procedure": "The practical range of pH for the assay is limited by the rapid spontaneous rate of hydrolysis of an ester Compound 5 above pH 8.0. Initially, the ester was used at a concentration that was about four-fold greater than that of the protein, and the mixture was incubated at pH 7.2 for 10 minutes. Any change in fluorescence above background was noted.\nThe lack of spectroscopic distinction between such esters and their hydrolysis products recommended a chromatographic analysis of the process. Referring to FIG. 3, a mixture of Compound 7 (5 uM) and the monoclonal antibody from hybridoma P3 6D4 (0.1 uM) in phosphate buffer (50 mM, pH 8.0) was analyzed over time by high performance liquid chromatography (HPLC). The accelerated hydrolysis of the ester was apparent from the decrease of its peak and the concurrent increase in two new peaks that correspond with the expected products. Under these conditions, the ester is completely consumed in 60-80 minutes during which time the background rate accounts for about 12 to 16 percent hydrolysis. The chromatographic profile is the same as that produced by treatment with hog liver esterase.\n^c The rate constants were determined spectrophotometrically (at 245\nnm) by measuring initial rates at five concentrations of ester.\nas §1, §2, §3, §4, §5, §6, §7, §8, §9, §15\nReaction kinetics were studied using three reactant ligands as substrates for monoclonal receptors 37G2 and 22F5. Data from initial rates were consistent with Michaelis-Menten reaction mechanism for a usual enzyme-substrate system. Initial rates were followed using at 271 nm using a U.V.-visible spectorphotometer for Compound 17, and a fluorescence spectrometer for Compounds 5 and 20, using an excitation wavelength of 355 nm and an emission wavelength of 455 nm for both compounds."}, "[8]": {"system": "13E10", "experiment": "Hydrolysis of reactant ligands by receptor 13E10", "format": "biochemical, mouse", "set-up": "key to hydrolysis by 13E10, symbol: --: No hydrolysis observed", "conditions": "pH 8.0; 19: 2/5 uM, 21: 5/10 uM receptor/ligand", "procedure": "as §1, §2, §3, §4, §5, §6, §7, §8, §9, §10, §11, §12, §13, §14, §15, §16"}, "[9]": {"system": "1209", "experiment": "Hydrolysis of reactant ligands by receptor 12C9 (column head prints 1209)", "format": "biochemical, mouse", "set-up": "key to hydrolysis by 1209, symbol: --: No hydrolysis observed", "conditions": "pH 8.0; 19: 2/5 uM, 21: 5/10 uM receptor/ligand", "procedure": "as §1, §2, §3, §4, §5, §6, §7, §8, §9, §10, §11, §12, §13, §14, §15, §16"}, "[10]": {"system": "44A2", "experiment": "Hydrolysis of reactant ligands by receptor 44A2", "format": "biochemical, mouse", "set-up": "key to hydrolysis by 44A2, symbol: --: No hydrolysis observed", "conditions": "pH 8.0; 19: 2/5 uM, 21: 5/10 uM receptor/ligand", "procedure": "as §1, §2, §3, §4, §5, §6, §7, §8, §9, §10, §11, §12, §13, §14, §15, §16"}}, "data": [{"molecule": "CC(=O)Nc1ccc(CC(=O)Nc2cccc3ccc(C)nc23)cc1", "note": "[Compound 14]", "values": [{"measurement": "hydrolysis by 22F5, symbol", "setting": "[1]", "value": "--"}, {"measurement": "hydrolysis by 21G2, symbol", "setting": "[2]", "value": "--"}, {"measurement": "receptors (of eight) that catalyzed hydrolysis of the compound", "setting": "[3]", "value": "none of the receptors catalyzed hydrolysis"}, {"measurement": "hydrolysis by 17G8, symbol", "setting": "[4]", "value": "--"}, {"measurement": "hydrolysis by 7E5, symbol", "setting": "[5]", "value": "--"}, {"measurement": "hydrolysis by 37G2, symbol", "setting": "[6]", "value": "--"}, {"measurement": "Spon. (spontaneous hydrolysis), symbol", "setting": "[7]", "value": "--"}, {"measurement": "hydrolysis by 13E10, symbol", "setting": "[8]", "value": "--"}, {"measurement": "hydrolysis by 1209, symbol", "setting": "[9]", "value": "--"}, {"measurement": "hydrolysis by 44A2, symbol", "setting": "[10]", "value": "--"}]}]}
